# Source: patent US20250114338A1, “TETRAHYDRO-PYRIDO[3,4-b]INDOLE ESTROGEN RECEPTOR MODULATORS AND USES THEREOF” (Genentech, Inc., priority 2014, published 2025)
# System: ER-alpha MCF7
# Experiment: ER-alpha MCF7 HCS EC50; stated as measured by in vitro cell proliferation assays of Examples 902 and 903
# Format: cell-based
# Settings: Homo sapiens, MCF7, MCF7 cells; Table 2
# Summary of the method: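 MCF7 cells seeded 1000-2000 cells/well for 16 h, then treated with nine-point 1:2 DMSO dilution series in quadruplicate at 37 °C, 5% CO2 for 4 days. Viable cells quantified by CellTiter-Glo ATP luminescence; EC50 calculated. Controls: fulvestrant at final 100 nM, DMSO 0.2% v/v.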
row,Compound,EC50 [nM]
1,"C[C@@H]1Cc2c([nH]c3cc(F)ccc23)[C@@H](c2c(F)cc(OCCN3CC(CF)C3)cc2F)N1CC(C)(C)F [Example 240, (1R,3R)-1-(2,6-difluoro-4-(2-(3-(fluoromethyl)azetidin-1-yl)ethoxy)phenyl)-7-fluoro-2-(2-fluoro-2-methylpropyl)-3-methyl-2,3,4,9-tetrahydro-1H-pyrido[3,4-b]indole]",0.261
2,"C[C@@H]1Cc2c([nH]c3ccc(F)cc23)[C@@H](c2c(F)cc(OCCN3CC(CF)C3)cc2F)N1CC(C)(C)F [Example 241, (1R,3R)-1-(2,6-difluoro-4-(2-(3-(fluoromethyl)azetidin-1-yl)ethoxy)phenyl)-6-fluoro-2-(2-fluoro-2-methylpropyl)-3-methyl-2,3,4,9-tetrahydro-1H-pyrido[3,4-b]indole]",0.381
3,"C[C@@H]1Cc2c([nH]c3ccccc23)[C@@H](c2c(F)cc(OCCN3CC(CF)C3)cc2F)N1CC1(CO)CC1 [Example 243, (1-(((1R,3R)-1-(2,6-difluoro-4-(2-(3-(fluoromethyl)azetidin-1-yl)ethoxy)phenyl)-3-methyl-1,3,4,9-tetrahydro-2H-pyrido[3,4-b]indol-2-yl)methyl)cyclopropyl) methanol]",2
4,"C[C@H]1Cc2c([nH]c3ccc(F)cc23)[C@H](c2c(F)cc(OCCN3CC(CF)C3)cc2F)N1CC(C)(C)F [Example 245, (1S,3S)-1-(2,6-difluoro-4-(2-(3-(fluoromethyl)azetidin-1-yl)ethoxy)phenyl)-6-fluoro-2-(2-fluoro-2-methylpropyl)-3-methyl-2,3,4,9-tetrahydro-1H-pyrido[3,4-b]indole]",35
5,"C[C@@H]1Cc2c([nH]c3cccc(F)c23)[C@@H](c2c(F)cc(OCCN3CC(CF)C3)cc2F)N1CC(C)(C)F [Example 247, (1R,3R)-1-(2,6-difluoro-4-(2-(3-(fluoromethyl)azetidin-1-yl)ethoxy)phenyl)-5-fluoro-2-(2-fluoro-2-methylpropyl)-3-methyl-2,3,4,9-tetrahydro-1H-pyrido[3,4-b]indole]",4.34
6,"C[C@@H]1Cc2c([nH]c3ccccc23)[C@@H](c2ccc(OCCN3CC[C@@H](CF)C3)cc2)N1CC(C)(C)F [Example 250, (1R,3R)-2-(2-fluoro-2-methyl-propyl)-1-[4-[2-[(3R)-3-(fluoromethyl)pyrrolidin-1-yl]ethoxy]phenyl]-3-methyl-1,3,4,9-tetrahydropyrido[3,4-b]indole]",0.275
7,"C[C@H]1Cc2c([nH]c3cccc(F)c23)[C@H](c2c(F)cc(OCCN3CC(CF)C3)cc2F)N1CC(C)(C)F [Example 251, (1S,3S)-1-(2,6-difluoro-4-(2-(3-(fluoromethyl)azetidin-1-yl)ethoxy)phenyl)-5-fluoro-2-(2-fluoro-2-methylpropyl)-3-methyl-2,3,4,9-tetrahydro-1H-pyrido[3,4-b]indole]",21
8,"C[C@@H]1Cc2c([nH]c3ccccc23)[C@@H](c2c(F)cc(OCCN3CC(CF)C3)cc2F)N1CC(=O)N(C)C [Example 254, 2-[(1R,3R)-1-[2,6-difluoro-4-[2-[3-(fluoromethyl)azetidin-1-yl]ethoxy]phenyl]-3-methyl-1,3,4,9-tetrahydropyrido[3,4-b]indol-2-yl]-N,N-dimethyl-acetamide]",40
9,"Cc1cc(OC2CN(CCCF)C2)ccc1[C@@H]1c2[nH]c3ccccc3c2C[C@@H](C)N1CC(C)(C)F [Example 256, (1R,3R)-2-(2-fluoro-2-methyl-propyl)-1-[4-[1-(3-fluoropropyl)azetidin-3-yl]oxy-2-methyl-phenyl]-3-methyl-1,3,4,9-tetrahydropyrido[3,4-b]indole]",1.69
10,"CC(C)(F)CN1[C@H](c2c(F)cc(OCCN3CC(CF)C3)cc2F)c2[nH]c3ccccc3c2CC1(C)C [Example 257, (1R)-1-[2,6-difluoro-4-[2-[3-(fluoromethyl)azetidin-1-yl]ethoxy]phenyl]-2-(2-fluoro-2-methyl-propyl)-3,3-dimethyl-4,9-dihydro-1H-pyrido[3,4-b]indole]",1.09
11,"CC(C)(F)CN1[C@@H](c2c(F)cc(OCCN3CC(CF)C3)cc2F)c2[nH]c3ccccc3c2CC1(C)C [Example 258, (S)-1-(2,6-difluoro-4-(2-(3-(fluoromethyl)azetidin-1-yl)ethoxy)phenyl)-2-(2-fluoro-2-methylpropyl)-3,3-dimethyl-2,3,4,9-tetrahydro-1H-pyrido[3,4-b]indole]",31
12,"C[C@@H]1Cc2c([nH]c3ccccc23)[C@@H](c2c(F)cc(OC3CN(CC4CC(F)(F)C4)C3)cc2F)N1CC(C)(C)F [Example 259, (1R,3R)-1-[4-[1-[(3,3-difluorocyclobutyl)methyl]azetidin-3-yl]oxy-2,6-difluoro-phenyl]-2-(2-fluoro-2-methyl-propyl)-3-methyl-1,3,4,9-tetrahydropyrido[3,4-b]indole]",0.444
13,"C[C@@H]1Cc2c([nH]c3c(F)cccc23)[C@@H](c2c(F)cc(OCCN3CC(CF)C3)cc2F)N1CC(C)(C)F [Example 260, (1R,3R)-1-(2,6-difluoro-4-(2-(3-(fluoromethyl)azetidin-1-yl)ethoxy)phenyl)-8-fluoro-2-(2-fluoro-2-methylpropyl)-3-methyl-2,3,4,9-tetrahydro-1H-pyrido[3,4-b]indole]",0.881
14,"C[C@H]1Cc2c([nH]c3c(F)cccc23)[C@H](c2c(F)cc(OCCN3CC(CF)C3)cc2F)N1CC(C)(C)F [Example 262, (1S,3S)-1-(2,6-difluoro-4-(2-(3-(fluoromethyl)azetidin-1-yl)ethoxy)phenyl)-8-fluoro-2-(2-fluoro-2-methylpropyl)-3-methyl-2,3,4,9-tetrahydro-1H-pyrido[3,4-b]indole]",26

# More lines, now with the values ahead:
row,EC50 [nM],Compound
1,1.56,"C[C@@H]1Cc2c([nH]c3ccc(Cl)cc23)[C@@H](c2c(F)cc(OC3CN(CCCF)C3)cc2F)N1CC(C)(C)F [Example 239, (1R,3R)-6-chloro-1-(2,6-difluoro-4-((1-(3-fluoropropyl)azetidin-3-yl)oxy)phenyl)-2-(2-fluoro-2-methylpropyl)-3-methyl-2,3,4,9-tetrahydro-1H-pyrido[3,4-b]indole]"
2,5.42,"C[C@@H]1Cc2c([nH]c3ccc(F)cc23)[C@@H](c2c(F)cc(OC3CN(CCCF)C3)cc2F)N1CC(C)(C)F [Example 242, (1R,3R)-1-(2,6-difluoro-4-((1-(3-fluoropropyl)azetidin-3-yl)oxy)phenyl)-6-fluoro-2-(2-fluoro-2-methylpropyl)-3-methyl-2,3,4,9-tetrahydro-1H-pyrido[3,4-b]indole]"
3,63,"C[C@H]1Cc2c([nH]c3ccc(Cl)cc23)[C@H](c2c(F)cc(OC3CN(CCCF)C3)cc2F)N1CC(C)(C)F [Example 244, (1S,3S)-6-chloro-1-(2,6-difluoro-4-((1-(3-fluoropropyl)azetidin-3-yl)oxy)phenyl)-2-(2-fluoro-2-methylpropyl)-3-methyl-2,3,4,9-tetrahydro-1H-pyrido[3,4-b]indole]"
4,0.358,"C[C@@H]1Cc2c([nH]c3ccccc23)[C@@H](c2c(F)cc(OC3CN(CCCF)C3)cc2F)N1CC1(C)COC1 [Example 246, (1R,3R)-1-[2,6-difluoro-4-[1-(3-fluoropropyl)azetidin-3-yl]oxy-phenyl]-3-methyl-2-[(3-methyloxetan-3-yl)methyl]-1,3,4,9-tetrahydropyrido[3,4-b]indole]"
5,0.518,"C[C@@H]1Cc2c([nH]c3cc(F)ccc23)[C@@H](c2c(F)cc(OC3CN(CCCF)C3)cc2F)N1CC(C)(C)F [Example 248, (1R,3R)-1-(2,6-difluoro-4-((1-(3-fluoropropyl)azetidin-3-yl)oxy)phenyl)-7-fluoro-2-(2-fluoro-2-methylpropyl)-3-methyl-2,3,4,9-tetrahydro-1H-pyrido[3,4-b]indole]"
6,0.511,"C[C@@H]1Cc2c([nH]c3cccc(F)c23)[C@@H](c2c(F)cc(OC3CN(CCCF)C3)cc2F)N1CC(C)(C)F [Example 249, (1R,3R)-1-(2,6-difluoro-4-((1-(3-fluoropropyl)azetidin-3-yl)oxy)phenyl)-5-fluoro-2-(2-fluoro-2-methylpropyl)-3-methyl-2,3,4,9-tetrahydro-1H-pyrido[3,4-b]indole]"
7,50,"C[C@H]1Cc2c([nH]c3cc(F)ccc23)[C@H](c2c(F)cc(OC3CN(CCCF)C3)cc2F)N1CC(C)(C)F [Example 252, (1S,3S)-1-(2,6-difluoro-4-((1-(3-fluoropropyl)azetidin-3-yl)oxy)phenyl)-7-fluoro-2-(2-fluoro-2-methylpropyl)-3-methyl-2,3,4,9-tetrahydro-1H-pyrido[3,4-b]indole]"
8,35,"C[C@H]1Cc2c([nH]c3cccc(F)c23)[C@H](c2c(F)cc(OC3CN(CCCF)C3)cc2F)N1CC(C)(C)F [Example 253, (1S,3S)-1-(2,6-difluoro-4-((1-(3-fluoropropyl)azetidin-3-yl)oxy)phenyl)-5-fluoro-2-(2-fluoro-2-methylpropyl)-3-methyl-2,3,4,9-tetrahydro-1H-pyrido[3,4-b]indole]"
9,0.01,"C[C@@H]1Cc2c([nH]c3ccccc23)[C@@H](c2c(F)cc(OCCN3CC(CF)C3)cc2F)N1CC(C)(F)CO (stereo partly drawn) [Example 255, 3-((1R,3R)-1-(2,6-difluoro-4-(2-(3-(fluoromethyl)azetidin-1-yl)ethoxy)phenyl)-3-methyl-1,3,4,9-tetrahydro-2H-pyrido[3,4-b]indol-2-yl)-2-fluoro-2-methylpropan-1-ol]"
10,0.28,"C[C@@H]1Cc2c([nH]c3c(F)cccc23)[C@@H](c2c(F)cc(OC3CN(CCCF)C3)cc2F)N1CC(C)(C)F [Example 261, (1R,3R)-1-(2,6-difluoro-4-((1-(3-fluoropropyl)azetidin-3-yl)oxy)phenyl)-8-fluoro-2-(2-fluoro-2-methylpropyl)-3-methyl-2,3,4,9-tetrahydro-1H-pyrido[3,4-b]indole]"
11,0.359,"C[C@H](O)CN1[C@H](c2c(F)cc(OC3CN(CCCF)C3)cc2F)c2[nH]c3ccccc3c2C[C@H]1C [Example 263, (S)-1-((1R,3R)-1-(2,6-difluoro-4-((1-(3-fluoropropyl)azetidin-3-yl)oxy)phenyl)-3-methyl-1,3,4,9-tetrahydro-2H-pyrido[3,4-b]indol-2-yl)propan-2-ol]"
